Data taken from US9113629B2, “4-amino-6-(4-substituted-phenyl)-picolinates and 6-amino-2-(4-substituted-phenyl)-pyrimidine-4-carboxylates and their use as herbicides” (DOW AGROSCIENCES LLC, priority 2013, dated 2015).
Where two headings read alike, the source gives them in different places.

How the values were obtained:
[1] = tested on: Key Broadleaf Weed and Crop Species; test: Post-emergent Test II herbicidal activity (Table 5); assay type: in vivo; details: post-emergence, 336 h, post-emergent, 14 days after application; for pest or weed control at 70 g/ha: 70 g ai/ha; for pest or weed control at 140 g/ha: 140 g ai/ha
Method in brief: (§1)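 Plants grown in Metro-Mix 360 (pH 6.0–6.8) in a greenhouse (~15 h photoperiod, 23–29 °C day) to first or second true leaf stage, then sprayed with compound in acetone/DMSO/aqueous crop-oil-surfactant carrier at 187 L/ha by track sprayer. Injury visually scored 0–100% versus untreated plants after 14 d.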

[2] = tested on: Key Grass and Sedge Weeds as well as Grass Crops; test: Post-emergent Test II herbicidal activity (Table 6); assay type: in vivo; details: post-emergence, 336 h; for pest or weed control at 70 g/ha: application rate 70 g ai/ha; for pest or weed control at 140 g/ha: application rate 140 g ai/ha
Method in brief: as §1

[3] = ABUTH: velvetleaf (Abutilon theophrasti), read-out: Visual Growth Reduction (%) 14 Days After Application ABUTH
[4] = AMARE: redroot pigweed (Amaranthus retroflexus), read-out: Visual Growth Reduction (%) 14 Days After Application AMARE
[5] = BRSNN: oilseed-rape, canola (Brassica napus), read-out: Visual Growth Reduction (%) 14 Days After Application BRSNN
[6] = CHEAL: lambsquarters (Chenopodium album), read-out: Visual Growth Reduction (%) 14 Days After Application CHEAL
[7] = EPHHL: wild poinsettia (Euphorbia heterophylla), read-out: Visual Growth Reduction (%) 14 Days After Application EPHHL
[8] = HELAN: sunflower (Helianthus annuus), read-out: Visual Growth Reduction (%) 14 Days After Application HELAN
[9] = VIOTR: wild pansy (Viola tricolor), read-out: Visual Growth Reduction (%) 14 Days After Application VIOTR
[10] = Triticum aestivum, TRZSS (wheat), read-out: Visual Growth Reduction (%) 14 Days After Application, TRZSS
[11] = CYPES: yellow nutsedge (Cyperus esculentus), read-out: Visual Growth Reduction (%) 14 Days After Application, CYPES
[12] = DIGSA: crabgrass (Digitaria sanguinalis), read-out: Visual Growth Reduction (%) 14 Days After Application, DIGSA
[13] = ECHCG: barnyardgrass (Echinochloa crus-galli), read-out: Visual Growth Reduction (%) 14 Days After Application, ECHCG
[14] = ORYSA: rice (Oryza sativa), read-out: Visual Growth Reduction (%) 14 Days After Application, ORYSA
[15] = SETFA: giant foxtail (Setaria faberi), read-out: Visual Growth Reduction (%) 14 Days After Application, SETFA
[16] = SORVU: grain sorghum (Sorghum vulgare), read-out: Visual Growth Reduction (%) 14 Days After Application, SORVU
[17] = ZEAMX: maize, corn (Zea mays), read-out: Visual Growth Reduction (%) 14 Days After Application, ZEAMX

Cc1c(-c2ccc(I)cc2)nc(C(=O)O)c(Cl)c1N [Compound 116, 4-Amino-3-chloro-6-(4-iodophenyl)-5-methylpicolinic acid]
pest or weed control at 70 g/ha [1, 3]: 95 to 100% | pest or weed control at 140 g/ha [1, 3]: 95 to 100% | pest or weed control at 70 g/ha [1, 4]: 75 to 84% | pest or weed control at 140 g/ha [1, 4]: 85 to 94% | pest or weed control at 70 g/ha [1, 5]: 85 to 94% | pest or weed control at 140 g/ha [1, 5]: 95 to 100% | pest or weed control at 70 g/ha [1, 6]: 85 to 94% | pest or weed control at 140 g/ha [1, 6]: 85 to 94% | pest or weed control at 70 g/ha [1, 7]: 0 to 29% | pest or weed control at 140 g/ha [1, 7]: 0 to 29% | pest or weed control at 70 g/ha [1, 8]: 95 to 100% | pest or weed control at 140 g/ha [1, 8]: 95 to 100% | pest or weed control at 70 g/ha [1, 9]: 0 to 29% | pest or weed control at 140 g/ha [1, 9]: 0 to 29% | pest or weed control at 70 g/ha [2, 10]: 45 to 59% | pest or weed control at 140 g/ha [2, 10]: 45 to 59% | pest or weed control at 70 g/ha [2, 11]: 0 to 29% | pest or weed control at 140 g/ha [2, 11]: 0 to 29% | pest or weed control at 70 g/ha [2, 12]: 45 to 59% | pest or weed control at 140 g/ha [2, 12]: 60 to 74% | pest or weed control at 70 g/ha [2, 13]: 45 to 59% | pest or weed control at 140 g/ha [2, 13]: 60 to 74% | pest or weed control at 70 g/ha [2, 14]: 0 to 29% | pest or weed control at 140 g/ha [2, 14]: 0 to 29% | pest or weed control at 70 g/ha [2, 15]: 45 to 59% | pest or weed control at 140 g/ha [2, 15]: 60 to 74% | pest or weed control at 70 g/ha [2, 16]: 30 to 44% | pest or weed control at 140 g/ha [2, 16]: 45 to 59% | pest or weed control at 70 g/ha [2, 17]: 45 to 59% | pest or weed control at 140 g/ha [2, 17]: 60 to 74%

C=Cc1c(C(=O)O)nc(-c2ccc(Br)cc2)c(F)c1N [Compound 117]
pest or weed control at 70 g/ha [1, 3]: 95 to 100% | pest or weed control at 140 g/ha [1, 3]: 95 to 100% | pest or weed control at 70 g/ha [1, 4]: 95 to 100% | pest or weed control at 140 g/ha [1, 4]: 95 to 100% | pest or weed control at 70 g/ha [1, 5]: 75 to 84% | pest or weed control at 140 g/ha [1, 5]: 75 to 84% | pest or weed control at 70 g/ha [1, 6]: 95 to 100% | pest or weed control at 140 g/ha [1, 6]: 95 to 100% | pest or weed control at 70 g/ha [1, 7]: 95 to 100% | pest or weed control at 140 g/ha [1, 7]: 95 to 100% | pest or weed control at 70 g/ha [1, 8]: 85 to 94% | pest or weed control at 140 g/ha [1, 8]: 85 to 94% | pest or weed control at 70 g/ha [1, 9]: 0 to 29% | pest or weed control at 140 g/ha [1, 9]: 0 to 29% | pest or weed control at 70 g/ha [2, 10]: 0 to 29% | pest or weed control at 140 g/ha [2, 10]: 0 to 29% | pest or weed control at 70 g/ha [2, 11]: 95 to 100% | pest or weed control at 140 g/ha [2, 11]: 95 to 100% | pest or weed control at 70 g/ha [2, 12]: 0 to 29% | pest or weed control at 140 g/ha [2, 12]: 0 to 29% | pest or weed control at 70 g/ha [2, 13]: 75 to 84% | pest or weed control at 140 g/ha [2, 13]: 75 to 84% | pest or weed control at 70 g/ha [2, 14]: 45 to 59% | pest or weed control at 140 g/ha [2, 14]: 45 to 59% | pest or weed control at 70 g/ha [2, 15]: 0 to 29% | pest or weed control at 140 g/ha [2, 15]: 45 to 59% | pest or weed control at 70 g/ha [2, 16]: 85 to 94% | pest or weed control at 140 g/ha [2, 16]: 85 to 94% | pest or weed control at 70 g/ha [2, 17]: 45 to 59% | pest or weed control at 140 g/ha [2, 17]: 60 to 74%
